{"source": "paper PMC11131023", "about": "“Oral delivery of nanomedicine for genetic kidney disease” (PNAS Nexus, 2024)", "key": {"[1]": {"assay": "Biodistribution after oral gavage (ex vivo organ Cy7 fluorescence)", "conditions": "200 μL of 500 µM Cy7-labeled, 24 h, ex vivo imaging, N = 4", "description": "All animal procedures followed NIH guidelines for the care and use of laboratory animals and were approved by the University of Southern California's Institutional Animal Care and Use Committee. […] Mice were euthanized 24 h postinjection and organs (e.g. brain, heart, lungs, liver, kidneys, spleen, intestines, and bladder) were excised, imaged ex vivo on an AMI HTX in vivo imaging system, and the fluorescence signal was quantified via Aura software (Spectral Instruments Imaging, Tucson, AZ, USA, n ≥ 4). The mean radiance (photons/s/cm^2/sr) for each organ was quantified as a region of interest, and % of total organ fluorescence was obtained by dividing the fluorescence level of each organ by the sum of all the organ regions. Background was subtracted from the PBS-treated group."}, "[2]": {"test_system": "Caco-2 cells", "assay": "TER measurement of Caco-2 monolayers after CP treatment", "format": "cell-based, human", "conditions": "Caco-2 monolayer, up to 3 days after administration", "description": "In addition to protection against an acidic environment mimicking the stomach, chitosan has been reported to open tight junctions within the intestinal epithelium and increase bioavailability in vivo ([51]). […] TER was measured three days before treatment and again after administration of nanoparticles or free drug for up to 3 days.\nTER measurements were performed using an EVOM2 Epithelial Voltohmmeter (World Precision Instruments, USA)."}, "[3]": {"assay": "Kidney health in ADPKD mice (i-Stat Chem-8+ blood analysis)", "format": "in vivo, mouse", "description": "On the day of harvest, 90 µL of blood taken from the submandibular vein was analyzed using Chem-8+ cartridges for the i-Stat Handheld Blood Analyzer (Abbott, Chicago, IL, USA). Kidney health markers including measurements of plasma sodium (Na), potassium (K), chloride (Cl), ionized calcium (iCa), total carbon dioxide (tCO2), glucose (Glu), BUN/urea, creatinine (Crea), hematocrit (Hct), and hemoglobin (Hb) were evaluated."}, "[4]": {"test_system": "AMPK", "assay": "Intestine-kidney in vitro Transwell model, phospho-AMPK ELISA", "format": "cell-based, mouse", "conditions": "mpkCCDc14 cells below Caco-2 cells on Transwell, after 12 hours, N ≥ 3", "description": "To collect cysts grown in Matrigel, cysts were kept on ice for 1 h to liquidize the Matrigel and centrifuged at 400×g for 5 min to collect the cyst in the pellet. All standards and samples were measured on a Varioskan LUX microplate reader at a wavelength of 450 nm. The phospho-AMPK to total AMPK ratio was normalized to the PBS group and presented in percentage."}, "[5]": {"conditions": "cited from earlier work", "text": "The primary obstacle in the current management of kidney disease lies in the inadequate drug concentration within the kidney. This limitation is particularly evident in the case of ADPKD, where the only FDA-approved treatment, tolvaptan, achieves ∼5.7% accumulation in the kidney after oral administration ([62]). Similarly, in our study, ∼4.5% of free metformin accumulated in the kidney. Given the pronounced deficiency in kidney bioavailability observed with free drugs, our innovative oral kidney-targeting nanoformulation emerges as a promising solution to the current clinical challenges by pro ..."}, "[6]": {"set-up": "method as in PMID 24211079", "conditions": "cited from earlier work"}, "[7]": {"conditions": "oral every 3 days P30-P120, day of harvest"}}}
{"compound": "CN(C)C(=N)N=C(N)N", "note": "[free metformin, metformin]", "values": [{"measurement": "kidney accumulation (% of total organ fluorescence)", "setting": "[1]", "result": "~4.5", "unit": "%"}, {"measurement": "change in TER", "setting": "[2]", "result": "no changes in TER"}, {"measurement": "Na", "setting": "[3]; oral every 3 days P30-P120, blood from submandibular vein, day of harvest", "result": "144.6 ± 1.6", "unit": "mmol/L"}, {"measurement": "BUN/Urea", "setting": "[3]; [7]", "result": "22.8 ± 7.8", "unit": "md/dL"}, {"measurement": "Cl", "setting": "[3]; [7]", "result": "113.0 ± 3.2", "unit": "mmol/L"}, {"measurement": "Crea", "setting": "[3]; [7]", "result": "<0.2", "unit": "md/dL"}, {"measurement": "Glu", "setting": "[3]; [7]", "result": "220 ± 24.4", "unit": "mg/dL"}, {"measurement": "Hb", "setting": "[3]; [7]", "result": "12.8 ± 0.9", "unit": "g/dL"}, {"measurement": "Hct", "setting": "[3]; [7]", "result": "37.4 ± 3.0", "unit": "PCV"}, {"measurement": "K", "setting": "[3]; [7]", "result": "5.9 ± 1.4", "unit": "mmol/L"}, {"measurement": "iCa", "setting": "[3]; [7]", "result": "1.1 ± 0.2", "unit": "mmol/L"}, {"measurement": "tCO2", "setting": "[3]; [7]", "result": "23.1 ± 0.8", "unit": "mmol/L"}, {"measurement": "phosphorylated AMPK to total AMPK", "setting": "[4]", "result": "1.3 ± 0.4"}]}
{"compound": "Cc1ccccc1C(=O)Nc1ccc(C(=O)N2CCCC(O)c3cc(Cl)ccc32)c(C)c1", "note": "(stereo not drawn) [tolvaptan]", "values": [{"measurement": "accumulation in the kidney after oral administration", "setting": "[5]", "result": "~5.7", "unit": "%"}]}
{"compound": "Cy7-DSPE-PEG2000-(KKEEE)3K [free amphiphilic monomers, unassembled kidney-targeting amphiphiles]", "values": [{"measurement": "critical micelle concentration", "setting": "[6]", "result": "~1", "unit": "µM"}]}
